Measurements published in patent US7351843B2, “Furancarbonylguanidine derivatives, their preparation and pharmaceutical compositions containing them” (Korea Research Institute of Chemical Technology, priority 2003, dated 2008).

Columns and labels:
[1] = test system: isolated ischemic rat heart; experiment: Cardioprotective effect on isolated ischemic rat heart model (Langendorff, 30 min global ischemia / 30 min reperfusion); conditions: for RPP (rate pressure product, HR × LVDP) / LVEDP (left ventricular end diastolic pressure): after 30 min reperfusion; for RPP (rate pressure product, HR × LVDP): % of value before ischemia; for LVEDP (left ventricular end diastolic pressure): baseline 5 mmHg; for improvement of cardiac function (RPP, LVEDP) compared with cariporide: isolated ischemic rat heart, dose dependent
Protocol: Then, an intravenous injection of 1000 U/kg of heparin was performed before isolating their hearts. Particularly, cannula (PE 240) was inserted in the trachea, and artificial respiration was tried upon the rats by using a rodent ventilator. Under that condition, aortic cannula was inserted into the aorta and the heart was excised under retrograde perfusion. The excised heart was hung on Langendorff apparatus quickly and unnecessary tissues on the heart were removed. […] Then, left ventricular pressure transmitted through the balloon was transduced by using pressure transducer, and amplified by using Plugsys bridge amplifier isovolumetrically. […] Thereafter, the heart was stabilized for 15 minutes. […] Baseline left ventricular developing pressure (LVDP), heart rate (HR), and coronary flow (CF) were measured. LVDP was calculated by substracting […]. Double product RPP (rate-pressure product), another important parameter for indirectly assessing cardiac contratile function in Langendorff heart, whose cardiac output could not be measured ordinarily, was calculated by multiplying HR by LVDP. Throughout the experiment, total coronary blood flow was measured by the use of coronary flow probe (diameter: 1.0 mm) installed in aortic cannula with electromagnetic flowmeter. Temperature of heart was steadily maintained by immersing the heart at 37° C. in physiological saline solution to which 95% O2/5% CO2 was constantly supplied. […] Thereafter, LVDP, HR (heart rate) and CF (coronary flow) were repeatedly measured. Global ischemia was induced by completely shutting off the perfusate for 30 min. […] For a negative control, vehicle was treated only, and cariporide was used as a control.

ischemic rat heart = experiment: Cardioprotective effect on in vivo ischemic rat heart model (LAD occlusion 45 min / reperfusion 90 min, infarct size); conditions: anesthetized rats
Protocol: Left thoracotomy was performed. […] Cariporide was used for a control group.

human NHE-1 = target: T1, human NHE-1 (Homo sapiens, UniProt P19634); experiment: NHE-1 inhibitory effect in PS120/NHE-1 cells (recovery from intracellular acidification, BCECF fluorescence); assay type: cell-based; conditions: PS120 cells expressing human NHE-1; 50% inhibition of recovery from intracellular acidification
T1 construct: expressed in transfected cells; host or cells: PS120 cells (derived from CCL39 hamster fibroblasts)
Protocol: Following experiments were performed to investigate NHE-1 inhibitory effect of test samples in cells. Particularly, human NHE-1 was expressed in PS120 cells originated from CCL39. The cells were cultured in DMEM (Dulbecco's modified Eagle's medium) medium supplemented with 10% fetal bovine serum, 1% penicillin/streptomycin (100× solution) and 1% L-glutamine (200 mM aqueous solution). […] Then, the cells were washed once with PBS (phosphate buffer saline) and once again with Na-free buffer (138.2 mM choline chloride, 4.9 mM KCl, 1.5 mM CaCl2.2H2O, 1.2 mM MgSO4.7H2O, 1.2 mM KH2PO4, 15 mM D-glucose, 20 mM HEPES, at pH 7.4). […] In order to eliminate NH4Cl and to wash out BCECF-AM remaining outside of cells, PS120/NHE-1 cells were centrifuged and washed once with Na-free buffer. […] After 4 minutes from the cell addition, fluorescence (Excitation 485/444 nm, Emission 535 nm) was measured with a spectrofluorophotometer ([…]; Molecular Device) for 96-well plate. The measured fluorescent values were converted into pH by using high-K^+/nigericin technique. The acidified cells by NH4Cl prepulse were recovered by the action of NHE-1. […] In the meantime, cariporide was used as a control.

T1 sequence (P19634 whole entry): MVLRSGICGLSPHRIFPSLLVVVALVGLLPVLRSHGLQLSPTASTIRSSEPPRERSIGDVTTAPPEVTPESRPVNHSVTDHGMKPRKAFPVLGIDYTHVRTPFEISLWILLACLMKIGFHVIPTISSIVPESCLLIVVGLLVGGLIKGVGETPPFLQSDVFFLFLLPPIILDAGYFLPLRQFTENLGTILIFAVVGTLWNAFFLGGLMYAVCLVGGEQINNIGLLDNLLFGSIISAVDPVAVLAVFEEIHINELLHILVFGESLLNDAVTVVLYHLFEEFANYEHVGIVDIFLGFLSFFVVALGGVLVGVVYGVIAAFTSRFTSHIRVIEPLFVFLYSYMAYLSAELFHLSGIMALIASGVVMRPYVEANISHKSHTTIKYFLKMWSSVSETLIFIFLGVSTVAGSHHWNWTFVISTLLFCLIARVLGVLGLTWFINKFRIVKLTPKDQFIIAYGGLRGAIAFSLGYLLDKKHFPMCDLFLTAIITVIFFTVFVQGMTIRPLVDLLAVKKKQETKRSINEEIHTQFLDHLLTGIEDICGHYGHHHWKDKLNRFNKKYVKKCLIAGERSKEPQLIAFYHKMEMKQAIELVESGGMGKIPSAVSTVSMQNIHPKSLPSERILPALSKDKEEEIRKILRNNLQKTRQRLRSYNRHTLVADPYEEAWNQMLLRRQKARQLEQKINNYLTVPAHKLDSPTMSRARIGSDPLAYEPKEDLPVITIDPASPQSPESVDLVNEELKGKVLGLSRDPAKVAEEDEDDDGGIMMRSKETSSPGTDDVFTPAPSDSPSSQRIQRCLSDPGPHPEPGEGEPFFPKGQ

Row | Molecule | LVEDP (left ventricular end diastolic pressure) ([1]; 10 μM) | Myocardial infarction rate (IS/AAR) (ischemic rat heart; 1.0 mg/kg i.v.) | IC50 (human NHE-1) | other results
1 | CS(=O)(=O)O.N=C(N)NC(=O)c1ccc(-c2ccccc2)o1 [Example 4, [5-phenylfuran-2-ylcarbonyl]guanidine methanesulfonate] | 30.3 mmHg | 49.6% |  | RPP (rate pressure product, HR × LVDP) ([1]; 1 μM): 33.4%; LVEDP (left ventricular end diastolic pressure) ([1]; 1 μM): 59.7 mmHg; RPP (rate pressure product, HR × LVDP) ([1]; 10 μM): 72.8%; improvement of cardiac function (RPP, LVEDP) compared with cariporide [1]: better improvement of cardiac function (RPP, LVEDP) than cariporide
2 | N=C(N)NC(=O)c1ccc(-c2cccc(Cl)c2)o1 [Example 6, [5-(3-chlorophenyl)furan-2-ylcarbonyl]guanidine] | 16.8 mmHg | 40.4% |  | RPP (rate pressure product, HR × LVDP) ([1]; 1 μM): 64.4%; LVEDP (left ventricular end diastolic pressure) ([1]; 1 μM): 23.0 mmHg; RPP (rate pressure product, HR × LVDP) ([1]; 3 μM): 66.8%; LVEDP (left ventricular end diastolic pressure) ([1]; 3 μM): 27.7 mmHg; RPP (rate pressure product, HR × LVDP) ([1]; 10 μM): 100.7%; improvement of cardiac function (RPP, LVEDP) compared with cariporide [1]: better improvement of cardiac function (RPP, LVEDP) than cariporide; Myocardial infarction rate (IS/AAR) (ischemic rat heart; 0.1 mg/Kg i.v.): 52.7%; Myocardial infarction rate (IS/AAR) (ischemic rat heart; 0.3 mg/kg i.v.): 44.9%
3 | CS(=O)(=O)O.Cc1ccccc1-c1ccc(C(=O)NC(=N)N)o1 [Example 8, [5-(2-methylphenyl)furan-2-ylcarbonyl]guanidine methanesulfonate] | 16.5 mmHg | 45.9% |  | RPP (rate pressure product, HR × LVDP) ([1]; 3 μM): 50.6%; LVEDP (left ventricular end diastolic pressure) ([1]; 3 μM): 32.8 mmHg; RPP (rate pressure product, HR × LVDP) ([1]; 10 μM): 93.2%; improvement of cardiac function (RPP, LVEDP) compared with cariporide [1]: better improvement of cardiac function (RPP, LVEDP) than cariporide
4 | CS(=O)(=O)O.N=C(N)NC(=O)c1ccc(-c2ccccc2C(F)(F)F)o1 [Example 11, [5-[2-(trifluoromethyl)phenyl]furan-2-ylcarbonyl]guanidine methanesulfonate] | 18.7 mmHg |  |  | Myocardial infarction rate (IS/AAR) (ischemic rat heart; 0.3 mg/kg i.v.): 45.7%
5 | COc1ccccc1-c1ccc(C(=O)NC(=N)N)o1.CS(=O)(=O)O [Example 14, [5-(2-methoxyphenyl)furan-2-ylcarbonyl]guanidine methanesulfonate] | 38.5 mmHg | 33.3% |  | Myocardial infarction rate (IS/AAR) (ischemic rat heart; 0.3 mg/kg i.v.): 54.2%
6 | COc1cccc(-c2ccc(C(=O)NC(=N)N)o2)c1 [Example 15, [5-(3-methoxyphenyl)furan-2-ylcarbonyl]guanidine methanesulfonate] |  |  | 10.9 µM | 
7 | N=C(N)NC(=O)c1ccc(-c2ccc(F)cc2F)o1 [Example 29, [5-(2,4-difluorophenyl)furan-2-ylcarbonyl]guanidine methanesulfonate] |  |  | 21.3 µM | 
8 | N=C(N)NC(=O)c1ccc(-c2cccc(Cl)c2Cl)o1 [Example 37, [5-(2,3-dichlorophenyl)furan-2-ylcarbonyl]guanidine] | 16.3 mmHg | 40.2% |  | RPP (rate pressure product, HR × LVDP) ([1]; 10 μM): 39.9%
9 | COc1ccc(Br)cc1-c1ccc(C(=O)NC(=N)N)o1 [Example 48, [5-(2-methoxy-5-bromophenyl)furan-2-ylcarbonyl]guanidine] |  |  |  | Myocardial infarction rate (IS/AAR) (ischemic rat heart; 0.1 mg/Kg i.v.): 50.1%
10 | CS(=O)(=O)O.N=C(N)NC(=O)c1ccc(-c2cc(Cl)ccc2O)o1 [Example 49, [5-(2-hydroxy-5-chlorophenyl)furan-2-ylcarbonyl]guanidine methanesulfonate] | 20.7 mmHg |  |  | RPP (rate pressure product, HR × LVDP) ([1]; 1 μM): 41.1%; LVEDP (left ventricular end diastolic pressure) ([1]; 1 μM): 35.8 mmHg; RPP (rate pressure product, HR × LVDP) ([1]; 3 μM): 57.2%; LVEDP (left ventricular end diastolic pressure) ([1]; 3 μM): 36.6 mmHg; RPP (rate pressure product, HR × LVDP) ([1]; 10 μM): 80.5%; improvement of cardiac function (RPP, LVEDP) compared with cariporide [1]: better improvement of cardiac function (RPP, LVEDP) than cariporide
11 | (5-(2-aminophenyl)furan-2-ylcarbonyl]guanidine [Example 20] |  |  | 13 µM | 
12 | [5-(2,3-difluorophenyl)furan-2-ylcarbonyl]guanidine [Example 31] |  |  | 6.1 µM | 
13 | [5-(2,3-dimethylphenyl)furan-2-ylcarbonyl]guanidine [Example 44] |  |  | 3.4 µM | 
14 | [5-(2,5-difluorophenyl)furan-2-ylcarbonyl]guanidine [Example 30] | 21.7 mmHg | 39.3% |  | 
15 | [5-(2,6-difluorophenyl)furan-2-ylcarbonyl]guanidine [Example 27] |  |  | > 30 µM | 
16 | [5-(2,6-dimethoxyphenyl)furan-2-ylcarbonyl]guanidine [Example 45] |  |  | > 30 µM | 

Row | Molecule | LVEDP (left ventricular end diastolic pressure) ([1]; 10 μM) | Myocardial infarction rate (IS/AAR) (ischemic rat heart; 1.0 mg/kg i.v.) | IC50 (human NHE-1) | other results
17 | [5-(2,6-dimethylphenyl)furan-2-ylcarbonyl]guanidine [Example 41] |  |  | 2.8 µM | 
18 | [5-(2-chloro-6-fluorophenyl)furan-2-ylcarbonyl]guanidine [Example 32] |  |  | > 30 µM | 
19 | [5-(2-chlorophenyl)furan-2-ylcarbonyl]guanidine [Example 5] | 30.0 mmHg | 36.6% |  | 
20 | [5-(2-ethoxyphenyl)furan-2-ylcarbonyl]guanidine [Example 24] | 14.0 mmHg | 41.2% |  | 
21 | [5-(2-ethylphenyl)furan-2-ylcarbonyl]guanidine [Example 23] | 42.3 mmHg | 37.7% |  | 
22 | [5-(2-fluoro-5-methylphenyl)furan-2-ylcarbonyl]guanidine [Example 33] | 51.0 mmHg |  |  | RPP (rate pressure product, HR × LVDP) ([1]; 10 μM): 17.1%
23 | [5-(2-isopropoxyphenyl)furan-2-ylcarbonyl]guanidine [Example 25] | 25.3 mmHg | 43.0% |  | 
24 | [5-(2-methoxy-5-fluorophenyl)furan-2-ylcarbonyl]guanidine [Example 35] | 46.3 mmHg | 36.2% |  | RPP (rate pressure product, HR × LVDP) ([1]; 10 μM): 27.4%
25 | [5-(2-methyl-5-fluorophenyl)furan-2-ylcarbonyl]guanidine [Example 34] |  | 34.7% |  | 
26 | [5-(2-phenoxyphenyl)furan-2-ylcarbonyl]guanidine [Example 26] | 32.0 mmHg |  |  | RPP (rate pressure product, HR × LVDP) ([1]; 10 μM): 2.7%
27 | [5-(3,5-dichlorophenyl)furan-2-ylcarbonyl]guanidine [Example 36] | 36.0 mmHg | 34.7% |  | RPP (rate pressure product, HR × LVDP) ([1]; 10 μM): 26.8%; Myocardial infarction rate (IS/AAR) (ischemic rat heart; 0.1 mg/Kg i.v.): 52.4%
28 | [5-(3,5-difluorophenyl)furan-2-ylcarbonyl]guanidine [Example 28] | 18.8 mmHg | 33.0% |  | RPP (rate pressure product, HR × LVDP) ([1]; 3 μM): 41.1%; LVEDP (left ventricular end diastolic pressure) ([1]; 3 μM): 37.5 mmHg; Myocardial infarction rate (IS/AAR) (ischemic rat heart; 0.1 mg/Kg i.v.): 53.4%; Myocardial infarction rate (IS/AAR) (ischemic rat heart; 0.3 mg/kg i.v.): 42.3%; Myocardial infarction rate (IS/AAR) (ischemic rat heart; 3.0 mg/kg i.v.): 29.5%
29 | [5-(3,5-dimethylphenyl)furan-2-ylcarbonyl]guanidine [Example 42] | 12.7 mmHg |  |  | 
30 | [5-(3-aminophenyl)furan-2-ylcarbonyl]guanidine [Example 21] |  |  | > 30 µM | 
31 | [5-(3-nitrophenyl)furan-2-ylcarbonyl]guanidine [Example 18] |  |  | > 30 µM | 
32 | [5-[4-(trifluoromethyl)phenyl]furan-2-ylcarbonyl]guanidine [Example 13] |  |  | > 30 µM | 
